The test system of this assay is Demodex Spp. Put plainly: Evaluation of the solvent action on the survival of mites. The following applies: for Average life time of Acaro (mites) in the solvents: neat solvent. The source says:
Before evaluating the miticide effect of each of the oils, miscibility and safety thereof on mites was studied.

In the case of PEG-7 Glycerol Cocoate [Cetiol HE], the “Average life time of Acaro (mites) in the solvents” value (shortened to “Average life time of Acaro (mites)”) amounted to 0.08938 h.

As for `CCCCCCCC/C=C\CCCCCCCC(=O)OCCCCCCCCCC` [Cetiol V, decyl oleate], the “Average life time of Acaro (mites)” value was 8 h. Moreover, the “Acaricidal activity of the diluent” value (within 8 hours) was “did not have acaricidal activity”. Consider `CCO` [Absolute Ethanol], for which the “Average life time of Acaro (mites)” value is 0.03434 h. As for `CCCCCCCCCCCCCC(=O)OC(C)C` [Isopropyl Myristate], the “Average life time of Acaro (mites)” value was 3.37 h.

Values taken from patent US10357526B2, “Compositions for the treatment of infections caused by mite Demodex spp” (PROCAPS S.A., priority 2014, dated 2019).
